Data published in PubChem BioAssay (NCI).
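In this assay, cells in 96-well plates receive the compound at five concentrations for 48 hours. Endpoints are linearly interpolated between the surrounding concentrations. GI50 = concentration required for 50% inhibition of growth. The concentration for full growth arrest is given as TGI.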

Columns and labels:
Experiment in all cases: NCI tumour cell line growth inhibition, 48 h
NCI-H23 lung = system: NCI-H23 lung
OVCAR-4 ovarian = system: OVCAR-4 ovarian
TK-10 renal = system: TK-10 renal
SNB-19 CNS = system: SNB-19 CNS
A549 NSCLC = system: A549 NSCLC
NCI/ADR-RES ovarian = system: NCI/ADR-RES ovarian
NCI-H226 lung = system: NCI-H226 lung
SR leukemia = system: SR leukemia
SK-MEL-5 melanoma = system: SK-MEL-5 melanoma
PC-3 prostate = system: PC-3 prostate

SMILES	GI50 (NCI-H23 lung) [nM]	TGI (NCI-H23 lung) [µM]	GI50 (OVCAR-4 ovarian) [nM]	TGI (OVCAR-4 ovarian) [µM]	GI50 (TK-10 renal) [µM]	TGI (TK-10 renal) [µM]	GI50 (SNB-19 CNS) [µM]	TGI (SNB-19 CNS) [µM]	GI50 (A549 NSCLC) [nM]	TGI (A549 NSCLC) [µM]	GI50 (NCI/ADR-RES ovarian) [µM]	TGI (NCI/ADR-RES ovarian) [µM]	GI50 (NCI-H226 lung) [µM]	TGI (NCI-H226 lung) [µM]	GI50 (SR leukemia) [nM]	TGI (SR leukemia) [µM]	GI50 (SK-MEL-5 melanoma) [nM]	TGI (SK-MEL-5 melanoma) [µM]	GI50 (PC-3 prostate) [µM]	TGI (PC-3 prostate) [µM]
O=C1c2ccccc2-c2c1c1c(O)cccc1n2Cc1ccccc1	5670	29.7	7140	43.9	8.74	22.5	14.4	82.5	16800	> 100	6.5	33.6	> 100	> 100	30500	> 100	5620	24.7	12.3	32.6
O=C(CCN1CCOCC1)Nc1ccc(Cn2nnc3c2C(=O)c2nnn(Cc4ccc(NC(=O)CCN5CCOCC5)cc4)c2C3=O)cc1	1430	5.52	1360	3.44	> 100	> 100	1.56	3.07	> 100000	> 100	> 100	> 100	> 100	> 100	1680	7.62	590	1.71		> 100
COc1cc(NC(=O)COc2ccccc2)c(C(N)=O)cc1OC	1320	20.4	> 100000	> 100	14.4	> 100	3.31	51.9	917	> 100	0.487	11.7	42.8	> 100	515	> 100	766	> 100	2.23	> 100
O=C(CC1(O)C(=O)Nc2c(Cl)cc(Cl)cc21)c1cccc([N+](=O)[O-])c1 (centres undefined)		52.3		30		> 100		> 100		98.9		> 100		> 77.5		> 100		30.9		> 100
O=C1NC(c2ccccc2Cl)Nc2ccccc21 (centres undefined)		> 100		> 100		> 100		> 74		> 100		27.5		> 84.6		> 100		> 80.5		> 72.6
O=c1c(Oc2ccc(F)cc2F)cc2cnc(NC3CCOCC3)nc2n1C1CC1	> 25000	> 25	> 25000	> 25	19.8	> 25	> 25	> 25	> 25000	> 25	> 25	> 25	> 22.9	> 25	> 25000	> 25	> 25000	> 25	> 25	> 25
COc1ccccc1CNCCCN1C(=O)c2ccc3c4c(ccc(c24)C1=O)C(=O)N(CCCNCc1ccccc1OC)C3=O	179	0.443	101	0.231	0.17	0.466	0.159	0.347	200	0.46	1.19	4.54	0.362	1.32	264	0.928	155	0.29	0.214	0.608
CC(C)c1ccc2c(c1)CCC1C2CCCC1(C)NCc1ccccc1 (centres undefined)	5480	19.7	7260	19.8	2.71	7.19	12.8	26.4	15500	31.1	5.84	19.9	5.38	18.4	1800	6.3	1820	3.35	6.06	19.3
OCc1ccc(N2CCc3ccc(F)cc3C2)cc1Cl	1860	21	79.9	0.772	0.0178	0.0693	12.4	27	516	19.8	5.22	25.6	0.0267	0.114	2900	17.3	856	20	12.7	27.4
OC[C@H]1C[C@](O)(c2ccc(F)cc2)[C@@H](c2ccc(F)cc2)O1	> 100000	> 100	> 100000	> 100	> 100	> 100	> 100	> 100	> 100000	> 100	> 100	> 100	> 100	> 100	> 100000	> 100	> 100000	> 100	> 100	> 100
O=C1[C@H](Cc2ccc(O)cc2)N2C(=O)CCN(C(=O)NCc3ccccc3)[C@H]2CN1Cc1cccc2ccccc12	4050	34.5	781	> 49.9	3.88	30.7	0.868	> 100	2660	> 50.6	43.5	> 100	1.99	21.4	3190	> 54.1	2280	11.4	2.54	18.8
